We go through 28 molecules from patent publication US20240294523A1, “HETEROCYCLIC LACTAM COMPOUND, AND PREPARATION METHOD THEREFOR AND PHARMACEUTICAL USE THEREOF” (Genfleet Therapeutics (Shanghai) Inc., priority 2021, published 2024).

The target of the first assay is RIPK1 (Homo sapiens (Human), UniProt Q13546). The assay can be described thus: Inhibitory activity against RIPK1 enzyme (33P-ATP, MBP substrate). To be noted: 36 nM RIPK1, 0.33 mg/ml MBP, 155 μM ATP, 2 hours, room temperature. In kind it is biochemical. The protocol: (§1) The reagents used, suppliers and product numbers of the reagents were as follows: RPMI-1640, Gibco, 11875-093; FBS, Gibco, 10099-141; Trypsin-EDTA, Gibco, 25200-072; PS, Gibco, 15140-122; CellTiter Glo , Progema, G7573; DMSO, VWR AMRESCO, 0231-500ML; TNF-α protein (human, recombinant), Peprotech, 300-01A; Q-VD-Oph, MCE, HY-12305; V-shaped bottom plate, Corning, 3894; 384-well low-flange white flat-bottom microplate, Corning, 3570; RIPK1, Eurofins, 16-022; MOPS, BDH, 441644J; EDTA, Sigma, E5134; Myelin basic protein, Sigma, M1891-25.00 MG; Magnesium acetate, Merck, DU008026; ATP (non-radioactive label), Sigma, A-7699; ATP (radioactive label), Hartmann Analytic, DU008054; Phosphoric acid, Metlab, DU003000; Z-VAD: Shanghai Yuang Chemical Industry, YA02401.
RIPK1, sequence (Q13546 whole entry): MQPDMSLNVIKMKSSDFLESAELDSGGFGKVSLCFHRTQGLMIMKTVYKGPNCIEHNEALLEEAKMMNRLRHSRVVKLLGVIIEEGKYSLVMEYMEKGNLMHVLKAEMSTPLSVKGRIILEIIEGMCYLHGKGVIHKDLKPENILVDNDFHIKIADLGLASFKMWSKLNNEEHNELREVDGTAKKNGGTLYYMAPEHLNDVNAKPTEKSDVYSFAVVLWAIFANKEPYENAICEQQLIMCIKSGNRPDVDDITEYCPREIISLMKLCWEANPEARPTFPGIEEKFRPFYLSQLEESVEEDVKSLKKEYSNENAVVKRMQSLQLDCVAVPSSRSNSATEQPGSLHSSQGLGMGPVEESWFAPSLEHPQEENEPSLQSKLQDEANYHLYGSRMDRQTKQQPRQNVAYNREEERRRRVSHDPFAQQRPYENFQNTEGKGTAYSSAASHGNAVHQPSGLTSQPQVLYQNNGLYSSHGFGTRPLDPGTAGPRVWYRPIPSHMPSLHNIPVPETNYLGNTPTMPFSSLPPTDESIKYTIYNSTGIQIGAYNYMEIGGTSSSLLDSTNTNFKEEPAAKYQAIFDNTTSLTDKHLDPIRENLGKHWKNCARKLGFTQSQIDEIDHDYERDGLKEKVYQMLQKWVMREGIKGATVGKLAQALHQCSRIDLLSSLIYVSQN
The compound to be tested was dissolved in DMSO to prepare a 10 mM stock solution, diluted 3.16 times with DMSO into a series of concentration gradients, and then MOPS pH 7.0 buffer solution was used to dilute 50 times to prepare a working solution, and mixed well with 36 nM RIPK1 (final concentration), 0.33 mg/ml substrate MBP. Afterwards, 10 mM magnesium ions and 155 μM phosphorus 33 isotope-labeled ATP were added to react, The final concentration of DMSO was 2%. After the reaction was proceeded at room temperature for 2 hours, phosphoric acid was added to terminate. The final reaction system was processed and detected using a liquid scintillation counter. After the test results are subtracted from the blank control and compared with the reading value of the control group to convert to the activity percentage, which was plotted as a curve with the final concentration of the corresponding compound, and four-parameter fitting was used to obtain the IC50 of the compound that inhibits RIPK1 enzyme activity.
Regarding `O=C1c2nn(Cc3ccccc3)c(Cl)c2CCCN1CC(F)F` [Compound Z42], the IC50 was determined as 0.184 µM.

`O=C1c2nn(Cc3ccccc3F)c(Cl)c2CCN1CC(F)F` [Compound Z2, 3-chloro-6-(2,2-difluoroethyl)-2-(2-fluorobenzyl)-2,4,5,6-tetrahydro-7H-pyrazolo[3,4-c]pyridin-7-one] showed an IC50 of 0.03 µM.

`O=C1c2nn(Cc3c(F)cccc3F)c(Cl)c2CCN1CC(F)F` [Compound Z3, 3-chloro-2-(2,6-difluorobenzyl)-6-(2,2-difluoroethyl)-2,4,5,6-tetrahydro-7H-pyrazolo[3,4-c]pyridin-7-one] returned an IC50 of 0.048 µM.

In turn, `O=C1c2nn(Cc3ccccc3)c(Cl)c2CCN1CC(F)F` [Compound Z1, 2-benzyl-3-chloro-6-(2,2-difluoroethyl)-2,4,5,6-tetrahydro-7H-pyrazolo[3,4-c]pyridine-7-one] gave an IC50 of 0.065 µM.

Another assay has as its system U937 cells. Nature of the assay: Inhibition of TNF-α-induced programmed necrosis of U937 cells (CellTiter-Glo). Type of assay: cell-based. Particulars: U-937, human TNF-α + Q-VD-Oph, 48 hours. Here is the method:
The U937 cell line used in the following test examples was from ATCC, number: CRL-1593.2, batch number: 63479999, culture medium: RPMI-1640+10% FBS.
as §1
The compounds to be tested were dissolved in DMSO and diluted with DMSO into a series of concentration gradients. 5000 U937 cells/well were seeded in a 384-well white plate. Compounds of corresponding concentrations were added to each well and mixed evenly with the cells. At the same time, human TNF-a and Q-VD-Oph were added to induce programmed necrosis of the cells. The cells were placed at 37° C., 5% CO2 incubator for 48 hours. CellTiter-Glo reagent was used for detection, and the chemiluminescence reading was detected using a microplate reader after sufficient lysis reaction. The test results were calculated using the formula SR (%)=(RLU compound−RLU blank)/(RLU high control−RLU blank)×100%. The survival rate and the final concentration of the corresponding compound were drawn into a curve and fitted using four parameters. Inhibitory IC50 on TNF-α-induced cell necrosis of the compounds were calculated.
Take `CC(C(F)F)N1CCc2c(nn(Cc3c(F)cc(F)cc3F)c2Cl)C1=O` (stereo not shown) [Compound Z22, 3-chloro-6-(1,1-difluoropropan-2-yl)-2-(2,4,6-trifluorobenzyl)-2,4,5,6-tetrahydro-7H-pyrazolo[3,4-c]pyridin-7-one]: the IC50 was 0.222 µM.

As for `CC(C(F)F)N1CCc2c(nn(Cc3ccccc3F)c2Cl)C1=O` (stereo not shown) [Compound Z19, 3-chloro-6-(1,1-difluoropropan-2-yl)-2-(2-fluorobenzyl)-2,4,5,6-tetrahydro-7H-pyrazolo[3,4-c]pyridin-7-one], the IC50 is 0.168 µM.

Take `N#CCC1(N2CCc3c(nn(Cc4c(F)cccc4F)c3Cl)C2=O)CC1` [Compound Z7, 2-(1-(3-chloro-2-(2,6-difluorobenzyl)-7-oxo-2,4,5,7-tetrahydro-6H-pyrazolo[3,4-c]pyridin-6-yl)cyclopropyl)acetonitrile]: the IC50 worked out at 1.83 µM.

As to `CC(C(F)F)N1CCc2c(nn(Cc3ccccc3OC(F)(F)F)c2Cl)C1=O` (stereo not shown) [Compound Z12, 3-chloro-6-(1,1-difluoropropan-2-yl)-2-(2-(trifluoromethoxy)benzyl)-2,4,5,6-tetrahydro-7H-pyrazolo[3,4-c]pyridin-7-one], the concentration for half-maximal inhibition (IC50) is 1.38 µM.

`CC(C(F)F)N1CCc2c(nn(Cc3cc(F)cc(F)c3)c2Cl)C1=O` (stereo not shown) [Compound Z14, 3-chloro-2-(3,5-difluorobenzyl)-6-(1,1-difluoropropan-2-yl)-2,4,5,6-tetrahydro-7H-pyrazolo[3,4-c]pyridin-7-one]: the IC50 came to 0.982 µM.

As for `O=C1c2nn(Cc3ccccc3F)c(Cl)c2CCN1CC(F)F` [Compound Z2, 3-chloro-6-(2,2-difluoroethyl)-2-(2-fluorobenzyl)-2,4,5,6-tetrahydro-7H-pyrazolo[3,4-c]pyridin-7-one], the 50% inhibitory concentration (IC50) came out at 0.279 µM.

In the case of `CC(C(F)F)N1CCc2c(nn(Cc3c(F)cccc3F)c2Br)C1=O` (stereo not shown) [Compound Z24, 3-bromo-2-(2,6-difluorobenzyl)-6-(1,1-difluoropropan-2-yl)-2,4,5,6-tetrahydro-7H-pyrazolo[3,4-c]pyridin-7-one], the IC50 turned out to be 0.0489 µM.

In the case of `CC(C(F)F)N1CCc2c(nn(Cc3cc(F)c(F)cc3F)c2Cl)C1=O` (stereo not shown) [Compound Z21, 3-chloro-6-(1,1-difluoropropan-2-yl)-2-(2,4,5-trifluorobenzyl)-2,4,5,6-tetrahydro-7H-pyrazolo[3,4-c]pyridin-7-one], the IC50 turned out to be 0.534 µM.

As to `CC1(C)CC(N2CCc3c(nn(Cc4c(F)cccc4F)c3Cl)C2=O)CCO1` (stereo not shown) [Compound Z25, 3-chloro-2-(2,6-difluorobenzyl)-6-(2,2-dimethyltetrahydro-2H-pyran-4-yl)-2,4,5,6-tetrahydro-7H-pyrazolo[3,4-c]pyridin-7-one], the IC50 came out at 0.464 µM.

With `O=C1c2nn(Cc3ccccc3Cl)c(Cl)c2CCN1CC(F)F` [Compound Z8, 3-chloro-2-(2-chlorobenzyl)-6-(2,2-difluoroethyl)-2,4,5,6-tetrahydro-7H-pyrazolo[3,4-c]pyridin-7-one], the IC50 is 0.253 µM.

Consider `O=C1c2nn(Cc3c(F)cccc3F)c(Cl)c2CCN1CC1(F)CC1` [Compound Z11, 3-chloro-2-(2,6-difluorobenzyl)-6-((1-fluorocyclopropyl)methyl)-2,4,5,6-tetrahydro-7H-pyrazolo[3,4-c]pyridin-7-one], for which the IC50 was determined as 1.6 µM.

`O=C1c2nn(Cc3c(F)cccc3F)c(Cl)c2CCN1C(C(F)F)C1CC1` (stereo not shown) [Compound Z13, 3-chloro-6-(1-cyclopropyl-2,2-difluoroethyl)-2-(2,6-difluorobenzyl)-2,4,5,6-tetrahydro-7H-pyrazolo[3,4-c]pyridin-7-one]: the IC50 worked out at 0.12 µM.

Regarding `CCC(=O)N1CCc2c(nn(Cc3c(F)cccc3F)c2Cl)C1=O` [Compound Z20, 3-chloro-2-(2,6-difluorobenzyl)-6-propionyl-2,4,5,6-tetrahydro-7H-pyrazolo[3,4-c]pyridin-7-one], the IC50 is 0.3 µM.

In the case of `O=C1c2nn(Cc3c(F)ccc(F)c3F)c(Cl)c2CCN1CC(F)F` [Compound Z6, 3-chloro-6-(2,2-difluoroethyl)-2-(2,3,6-trifluorobenzyl)-2,4,5,6-tetrahydro-7H-pyrazolo[3,4-c]pyridin-7-one], the IC50 was 0.482 µM.

Regarding `CCC(C(F)F)N1CCc2c(nn(Cc3c(F)cccc3F)c2Cl)C1=O` (stereo not shown) [Compound Z15, 3-chloro-2-(2,6-difluorobenzyl)-6-(1,1-difluorobutan-2-yl)-2,4,5,6-tetrahydro-7H-pyrazolo[3,4-c]pyridin-7-one], the half-maximal inhibitory concentration (IC50) came out at 0.127 µM.

As to `O=C1c2nn(Cc3cc(F)ccc3F)c(Cl)c2CCN1CC(F)F` [Compound Z5, 3-chloro-2-(2,5-difluorobenzyl)-6-(2,2-difluoroethyl)-2,4,5,6-tetrahydro-7H-pyrazolo[3,4-c]pyridin-7-one], the IC50 was 0.205 µM.

Take `CC(COc1ccc(C#N)cn1)N1CCc2c(nn(Cc3ccccc3)c2Cl)C1=O` (stereo not shown) [Compound Z16, 6-(2-(2-benzyl-3-chloro-7-oxo-2,4,5,7-tetrahydro-6H-pyrazolo[3,4-c]pyridine-6-yl)propoxy)nicotinonitrile]: the IC50 came to 2.95 µM.

With `CC(C(F)F)N1CCc2c(C(F)(F)F)nn(Cc3c(F)cccc3F)c2C1=O` (stereo not shown) [Compound Z17, 1-(2,6-difluorobenzyl)-6-(1,1-difluoropropan-2-yl)-3-(trifluoromethyl)-1,4,5,6-tetrahydro-7H-pyrazolo[3,4-c]pyridin-7-one], the IC50 amounted to 1.82 µM.

Turning to `C[C@H](C(F)F)N1CCc2c(nn(Cc3c(F)cccc3F)c2Br)C1=O` (single isomer, unassigned) [Compound Z24-1], the IC50 turned out to be 0.119 µM.

Regarding `CC(=O)N1CCc2c(nn(Cc3c(F)cccc3F)c2Cl)C1=O` [Compound Z26, 6-acetyl-3-chloro-2-(2,6-difluorobenzyl)-2,4,5,6-tetrahydro-7H-pyrazolo[3,4-c]pyridin-7-one], the IC50 amounted to 0.361 µM.

For the molecule `O=C1c2nn(Cc3c(F)cccc3F)c(Cl)c2CCN1CC(F)F` [Compound Z3, 3-chloro-2-(2,6-difluorobenzyl)-6-(2,2-difluoroethyl)-2,4,5,6-tetrahydro-7H-pyrazolo[3,4-c]pyridin-7-one], the IC50 worked out at 0.129 µM.

Take `O=C1c2nn(Cc3c(F)cccc3F)c(Cl)c2CCN1C1CCOCC1` [Compound Z23, 3-chloro-2-(2,6-difluorobenzyl)-6-(tetrahydro-2H-pyran-4-yl)-2,4,5,6-tetrahydro-7H-pyrazolo[3,4-c]pyridin-7-one]: the IC50 was determined as 0.311 µM.

With `O=C1c2nn(Cc3c(F)cccc3F)c(Cl)c2CCN1C1(C(F)F)CC1` [Compound Z10, 3-chloro-2-(2,6-difluorobenzyl)-6-(1-(difluoromethyl)cyclopropyl)-2,4,5,6-tetrahydro-7H-pyrazolo[3,4-c]pyridin-7-one], the IC50 was determined as 0.676 µM.

For the molecule `O=C1c2nn(Cc3ccccc3)c(Cl)c2CCN1CC(F)F` [Compound Z1, 2-benzyl-3-chloro-6-(2,2-difluoroethyl)-2,4,5,6-tetrahydro-7H-pyrazolo[3,4-c]pyridine-7-one], the IC50 was 0.461 µM.

`C[C@@H](C(F)F)N1CCc2c(nn(Cc3c(F)cccc3F)c2Cl)C1=O` (single isomer, unassigned) [Compound Z9-1]: the IC50 came to 0.256 µM.

Consider `N#CCCN1CCc2c(nn(Cc3c(F)cccc3F)c2Cl)C1=O` [Compound Z4, 3-(3-chloro-2-(2,6-difluorobenzyl)-7-oxo-2,4,5,7-tetrahydro-6H-pyrazolo[3,4-c]pyridine-6-yl)propionitrile], for which the IC50 stood at 1.36 µM.

Regarding `CC(C(F)F)N1CCc2c(nn(Cc3ccc(F)cc3F)c2Cl)C1=O` (stereo not shown) [Compound Z18, 3-chloro-2-(2,4-difluorobenzyl)-6-(1,1-difluoropropan-2-yl)-2,4,5,6-tetrahydro-7H-pyrazolo[3,4-c]pyridin-7-one], the IC50 is 0.194 µM.
